Measurements from paper PMC4257560, “Synthesis and Functional Characterization of Substituted Isoquinolinones as MT2-Selective Melatoninergic Ligands” (PLoS ONE, 2014).
Several values for one entry are separate records, joined by “and”; a condition that tells them apart may be missing. Identical values can stand only once. Entries after “also recorded” stand apart in the source; their conditions may differ. Like-named read-outs stand apart in the source and are kept apart here.

Key:
MT2 [1] = biological target: T1, MT2 (Homo sapiens, UniProt P49286); settings: for displacement of pre-incubated [3H]melatonin at MT2 (in words): competitive binding, intact CHO cells
T1 sequence (P49286 1-362): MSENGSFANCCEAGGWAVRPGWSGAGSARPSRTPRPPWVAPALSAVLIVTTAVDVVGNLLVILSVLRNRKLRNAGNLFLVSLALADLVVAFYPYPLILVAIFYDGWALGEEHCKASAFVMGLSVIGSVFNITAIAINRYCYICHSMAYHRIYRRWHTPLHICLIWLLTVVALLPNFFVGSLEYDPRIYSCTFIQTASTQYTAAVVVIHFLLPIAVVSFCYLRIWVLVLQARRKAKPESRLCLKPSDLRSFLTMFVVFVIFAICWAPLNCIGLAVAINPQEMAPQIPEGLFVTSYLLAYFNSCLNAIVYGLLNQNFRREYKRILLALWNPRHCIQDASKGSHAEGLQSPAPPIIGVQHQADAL
Description: (§5) Competitive receptor binding characteristics of melatonin and the 15 tested compounds towards human MT1 and MT2 stably expressed in Chinese hamster ovary (CHO) cells were determined using intact cell preparation pre-incubated with 1 nM [^3H]melatonin.
(§6) Individual melatonin receptor subtype (either MT1 or MT2) was stably co-expressed with a G protein chimera 16z25 in Chinese hamster ovary (CHO) cells, hereafter denoted as CHO-hMT1 and CHO-hMT2, respectively. […] Single cell-derived colonies of the stable lines with sufficiently high receptor density and robust responses in the fluorometric assay (as described below) were isolated from the pool of transfected cell. Usage of these clonal lines was limited to 15 passages to prevent degradation of signal detection.
(§7) Competitive binding assays were performed as described [26]. Cells were suspended in binding buffer (50 mM Tris, 2 mM MgCl2, 1 mM EGTA, pH 7.4) in the density of 1.5×10^5 cell/ml. 1 nM [^3H]melatonin and increasing concentrations of a tested compound was included. Cells were incubated at 4°C for 60 min with intermittent agitation and the reaction was stopped by rapid filtration through GF/C filters pre-soaked in 10 mM Tris, pH 7.4 and washed with 1 ml of prechilled binding buffer. Retained radioactivity was measured with Wallac 1450 Microbeta Jet scintillation counter. Competition curves were drawn as one-site competition nonlinear regression model using GraphPad Prism 3.03 to the data which were means ± SEM of 3–4 independent experiments performed in duplicates. In every assay, melatonin was included as standard reference with highly reproducible Ki values, which were calculated using the Cheng-Prusoff equation.

MT2 [2] = biological target: T1, MT2; assay: biochemical; settings: for Ki: MT2 Ki, calculated from mean pIC50 (Cheng-Prusoff), 1 nM [3H]melatonin, intact CHO cells; for Emax: read-out: MT2 %Resp±SEM (percentage of melatonin-mediated displacement of radioligand binding)
Description: as §5, §6, §7

MT1 [3] = biological target: T2, MT1 (Homo sapiens, UniProt P48039); assay: biochemical; settings: for Emax: read-out: MT1 %Resp±SEM (percentage of melatonin-mediated displacement of radioligand binding)
T2 sequence (P48039 whole entry): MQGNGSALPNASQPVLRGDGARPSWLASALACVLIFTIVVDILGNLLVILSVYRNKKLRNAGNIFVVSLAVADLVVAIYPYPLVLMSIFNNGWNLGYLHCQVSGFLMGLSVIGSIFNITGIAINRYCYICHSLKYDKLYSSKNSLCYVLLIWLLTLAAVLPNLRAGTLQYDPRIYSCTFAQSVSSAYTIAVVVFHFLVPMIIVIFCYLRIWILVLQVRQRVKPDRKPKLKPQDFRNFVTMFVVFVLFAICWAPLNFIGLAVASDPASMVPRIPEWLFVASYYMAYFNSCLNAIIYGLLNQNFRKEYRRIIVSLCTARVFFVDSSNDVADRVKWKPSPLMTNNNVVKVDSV
Description: as §5, §6, §7

MT2 [4] = biological target: T1, MT2; assay: Intracellular Ca2+ mobilization (FLIPR) in MT2-CHO cells co-expressing 16z25; type: cell-based; design: expressed in transfected cells; settings: for Emax: percentage of melatonin (MT)-mediated stimulation of Ca2+ signal, read-out: MT2 %Resp ±SEM, Ca2+ signal
Description: (§1) Tested compounds in different concentrations were diluted in assay buffer in 5× of the final desired concentrations in a V-bottomed microplate, and both the cell and compound plates were put into the fluorometric imaging plate reader FLIPR^TETRA (Molecular Devices, Sunnyvale, CA). […] The peak of the time course of fluorescence changes was expressed in relative fluorescence units (RFU). Dose response curves were constructed by non-linear regression using GraphPad Prism 3.

MT1 [5] = biological target: T2, MT1; settings: for MT1 pIC50±SEM: 4°C 60 min, mean ± SEM of 3–5 trials, NSB = no specific binding for up to 30 µM
Description: as §5, §6, §7

MT2 [6] = biological target: T1, MT2; assay: Inhibition of forskolin-stimulated cAMP accumulation in MT2-CHO cells; type: cell-based; design: expressed in transfected cells; settings: for IC50: MT2-CHO cells, 50 µM forskolin, calculated from mean pIC50, read-out: MT2 IC50, inhibition of cAMP production; for MT2 %Inhmax ±SEM: maximal percentage inhibition of the forskolin-elevated cAMP level, MT2-CHO
Description: (§2) Both MT1 and MT2 are classified as Gi-coupled receptors with their activation leading to inhibition of intracellular cAMP production. The ability of the tested compounds to activate the endogenously expressed Gi-mediated inhibition of cAMP production was therefore examined.
(§3) All the responses were expressed as the percentage of that induced by forskolin alone (as 100%).
(§4) 2×10^5 cells were seeded in each well of 12-well plates and grown for overnight. Each well was labeled with 1 ml of [^3H]adenine (1 µCi/ml) in F-12K medium containing 1% FBS (vol/vol) for overnight. The labeling media were then replaced by 1 ml of 20 mM HEPES-buffered F-12K containing 1 mM isobutylmethylxanthine (IBMX) and the tested compounds at desired concentrations, and incubated at 37°C for 30 min. The reaction was stopped by aspiration and adding 1 ml prechilled 5% trichloroacetic acid (w/v) with 1 mM ATP, and stored at 4°C for 30 min. [^3H]cAMP was extracted from the pool of labeled adenosine nucleotides by sequential ion-exchange chromatography as previously described. The radioactivity of labeled cAMP and total labeled nucleotide fractions separated by chromatography were estimated by scintillation counting. Inhibition curves were constructed by non-linear regression using GraphPad Prism 3.

MT1 [7] = biological target: T2, MT1; assay: Intracellular Ca2+ mobilization (FLIPR) in MT1-CHO cells co-expressing 16z25; type: cell-based; design: expressed in transfected cells; settings: for Ca2+ mobilization activity at MT1 (in words): MT1-CHO cells, maximal concentration tested 10 µM
Description: as §1

MT1 [8] = biological target: T2, MT1; assay: Inhibition of forskolin-stimulated cAMP accumulation in MT1-CHO cells; type: cell-based; design: expressed in transfected cells; settings: for MT1 IC50, inhibition of cAMP production: MT1-CHO cells, 50 µM forskolin, calculated from mean pIC50, NSR = no significant response for up to 10 µM; for MT1 %Inhmax ±SEM: maximal percentage inhibition of the forskolin-elevated cAMP level, MT1-CHO; for inhibition of cAMP levels in MT1-CHO cells (in words): forskolin-stimulated
Description: as §2, §3, §4

[9] = MT2-CHO cells, FLIPR, calculated from mean pEC50, NSR = no significant response for up to 30 µM, read-out: MT2 EC50, Ca2+ mobilization
[10] = 1 nM [3H]melatonin, intact CHO cells
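For MT1 %Resp±SEM (percentage of melatonin-mediated displacement of radioligand binding) in this document: competitive radioligand displacement on intact CHO cells stably co-expressing human MT1 together with the G protein chimera 16z25, using rising concentrations of each compound.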
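For MT1 pIC50±SEM in this document: competitive radioligand displacement on intact CHO cells stably co-expressing human MT1 together with the G protein chimera 16z25, using rising concentrations of each compound.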
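For Selectivity, ratio Ki(MT1)/Ki(MT2) in this document: competition binding on intact CHO cells stably co-expressing human MT2 with G protein chimera 16z25, displacing [3H]melatonin at 4°C over 60 min, melatonin run as reference.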
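For displacement of pre-incubated [3H]melatonin at MT2 (in words) in this document: competition binding on intact CHO cells stably co-expressing human MT2 with G protein chimera 16z25, displacing [3H]melatonin at 4°C over 60 min, melatonin run as reference.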
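For selectivity toward MT2 over MT1 in this document: competition binding on intact CHO cells stably co-expressing human MT2 with G protein chimera 16z25, displacing [3H]melatonin at 4°C over 60 min, melatonin run as reference.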

COc1ccc2c(=O)n(C)ccc2c1OCc1ccc(C)cc1 [15d, 6-Methoxy-2-methyl-5-(4-methyl-benzyloxy)-isoquinolin-1(2H)-one]
Selectivity, ratio Ki(MT1)/Ki(MT2) (MT2 [1]): 0.27 | IC50 (MT2 [2]): 9.55 µM | Ki (MT2 [2]): 2.89 µM | Emax (MT2 [2]): 74 ± 11% | IC50 (MT1 [3]): 3.39 µM | Ki (MT1 [3]): 0.77 µM | Emax (MT1 [3]): 34 ± 5% | EC50 (MT2 [4]; [9]): 0.128 µM | Emax (MT2 [4]; MT2): 40 ± 17%

COc1cc2c(=O)n(C)ccc2cc1OCc1cc(C)cc(C)c1 [7g, 6-(3,5-Dimethyl-benzyloxy)-7-methoxy-2-methylisoquinolin-1(2H)-one]
IC50 (MT2 [2]): 3.47 µM | Ki (MT2 [2]): 1.05 µM | Emax (MT2 [2]): 86 ± 2% | MT1 pIC50±SEM (MT1 [5]; [10]): NSB | EC50 (MT2 [4]; [9]): 0.11 µM | Emax (MT2 [4]; MT2): 83 ± 6%

COc1cc(COc2cc3c(=O)n(C)ccc3cc2OC)cc(OC)c1 [14c, 7-(3,5-Dimethoxy-benzyloxy)-6-methoxy-2-methylisoquinolin-1(2H)-one]
IC50 (MT2 [6]): 0.326 µM | MT2 %Inhmax ±SEM (MT2 [6]): 58±3% | Ca2+ mobilization activity at MT1 (in words) (MT1 [7]): could not produce any activity | IC50 (MT2 [2]): 18.2 µM | Ki (MT2 [2]): 5.49 µM | Emax (MT2 [2]): 94 ± 11% | MT1 pIC50±SEM (MT1 [5]; [10]): NSB | MT1 IC50, inhibition of cAMP production (MT1 [8]): NSR | Ca2+ mobilization activity at MT2 (in words) (MT2 [4]; MT2-CHO cells, FLIPR): partial efficacy | EC50 (MT2 [4]; [9]): 0.228 µM | Emax (MT2 [4]; MT2): 71 ± 17% | fold less potent than 7c (Ca2+ signal, MT2) (MT2 [4]; relative to 7c, MT2-CHO): 11 fold

COc1ccc2c(=O)n(C)ccc2c1OCc1ccccc1 [15a, 5-Benzyloxyl-6-methoxy-2-methylisoquinolin-1(2H)-one]
Selectivity, ratio Ki(MT1)/Ki(MT2) (MT2 [1]): 5.72 | IC50 (MT2 [2]): 1.2 µM | Ki (MT2 [2]): 0.362 µM | Emax (MT2 [2]): 85 ± 8% | IC50 (MT1 [3]): 9.12 µM | Ki (MT1 [3]): 2.07 µM | Emax (MT1 [3]): 84 ± 10% | melting point: 125 to 127 °C | EC50 (MT2 [4]; [9]): 0.215 µM | Emax (MT2 [4]; MT2): 70 ± 9%

COc1ccc2[nH]cc(CCNC(C)=O)c2c1 [MT, N-acetyl-5-methoxytryptamine, reference compound]
MT1 %Resp ±SEM, Ca2+ signal (MT1 [7]): 100±26% | MT1 %Resp±SEM (percentage of melatonin-mediated displacement of radioligand binding) (MT1 [5]; relative to melatonin (MT)-mediated displacement): 95±2% | MT1 %Inhmax ±SEM (MT1 [8]): 59±2% | MT1 %Inhmax ±SEM (MT1 [8]; listed as Melatonin): 60–70%

COc1cc(COc2c(OC)ccc3c(=O)n(C)ccc23)cc(OC)c1 [15c, 5-(3,5-Dimethoxy-benzyloxy)-6-methoxy-2-methylisoquinolin-1(2H)-one]
IC50 (MT2 [6]): 0.0406 µM | MT2 %Inhmax ±SEM (MT2 [6]): 64±3% | Ca2+ mobilization activity at MT1 (in words) (MT1 [7]): could not produce any activity | Selectivity, ratio Ki(MT1)/Ki(MT2) (MT2 [1]): 50.7 | selectivity toward MT2 over MT1 (MT2 [1]; binding, Ki ratio): 51 fold | displacement of pre-incubated [3H]melatonin at MT2 (in words) (MT2 [1]): almost complete displacement | IC50 (MT2 [2]): 0.141 µM | Ki (MT2 [2]): 0.042 µM | Emax (MT2 [2]): 94 ± 13% | IC50 (MT1 [3]): 9.33 µM | Ki (MT1 [3]): 2.13 µM | Emax (MT1 [3]): 63 ± 4% | melting point: 85 to 86 °C | MT1 IC50, inhibition of cAMP production (MT1 [8]): NSR | EC50 (MT2 [4]; [9]): 0.00408 µM | Emax (MT2 [4]; MT2): 85 ± 19% | fold more potent than 7c (Ca2+ signal, MT2) (MT2 [4]; relative to 7c, MT2-CHO): 5 fold

COc1ccccc1COc1cc2ccn(C)c(=O)c2cc1OC [7d, 7-Methoxy-6-(2-methoxy-benzyloxy)-2-methylisoquinolin-1(2H)-one]
IC50 (MT2 [6]): 0.247 µM | MT2 %Inhmax ±SEM (MT2 [6]): 59±5% | IC50 (MT2 [2]): 2.24 µM | Ki (MT2 [2]): 0.674 µM | Emax (MT2 [2]): 79 ± 5% | MT1 pIC50±SEM (MT1 [5]; [10]): NSB | melting point: 150 to 152 °C | inhibition of cAMP levels in MT1-CHO cells (in words) (MT1 [8]): observable inhibition | MT1 %Inhmax ±SEM (MT1 [8]): 33±13% | IC50 (MT1 [8]; read-out: MT1 IC50, inhibition of cAMP production): 0.396 µM | reduction of ability to trigger Ca2+ signal on moving methoxy from meta to ortho (vs 7b) (MT2 [4]; MT2-CHO): 2 orders of magnitude | EC50 (MT2 [4]; [9]): 0.0257 µM | Emax (MT2 [4]; MT2): 85 ± 22%

COc1cccc(COc2c(OC)ccc3c(=O)n(C)ccc23)c1 [15b, 6-Methoxy-5-(3-methoxy-benzyloxy)-2-methyl-2H-isoquinolin-1-one]
IC50 (MT2 [6]): 0.00081 µM | MT2 %Inhmax ±SEM (MT2 [6]): 61±4% | Ca2+ mobilization activity at MT1 (in words) (MT1 [7]): could not produce any activity; also recorded: totally inactive | Selectivity, ratio Ki(MT1)/Ki(MT2) (MT2 [1]): 1800 | IC50 (MT2 [2]): 0.0055 µM | Ki (MT2 [2]): 0.0017 µM and 0.00166 µM | Emax (MT2 [2]): 85 ± 8% | Ki (MT1 [5]; read-out: MT1 Ki, calculated from mean pIC50 (Cheng-Prusoff), 1 nM [3H]melatonin, intact CHO cells): 2.98 µM | IC50 (MT1 [3]): 13.2 µM | Emax (MT1 [3]): 71 ± 13% | MT1 IC50, inhibition of cAMP production (MT1 [8]): NSR | inhibition of cAMP levels in MT1-CHO cells (in words) (MT1 [8]): completely inactive | EC50 (MT2 [4]; MT2-CHO cells, FLIPR, mean ± SEM of 3–5 trials, read-out: MT2 pEC50 ±SEM, Ca2+ mobilization (converted)): 0.000145 µM | Emax (MT2 [4]; MT2): 89 ± 20%

COc1cccc(COc2cc3c(=O)n(C)ccc3cc2OC)c1 [14b, 6-Methoxy-7-(3-methoxy-benzyloxy)-2-methylisoquinolin-1(2H)-one]
IC50 (MT2 [6]): 0.0694 µM | MT2 %Inhmax ±SEM (MT2 [6]): 71±6% | Ca2+ mobilization activity at MT1 (in words) (MT1 [7]): could not produce any activity | displacement of pre-incubated [3H]melatonin at MT2 (in words) (MT2 [1]): completely displaced | IC50 (MT2 [2]): 1 µM | Ki (MT2 [2]): 0.302 µM | Emax (MT2 [2]): 92 ± 3% | MT1 pIC50±SEM (MT1 [5]; [10]): NSB | MT1 IC50, inhibition of cAMP production (MT1 [8]): NSR | EC50 (MT2 [4]; [9]): 0.0489 µM | Emax (MT2 [4]; MT2): 96 ± 16% | fold less potent than 7b (EC50, Ca2+ signal, MT2) (MT2 [4]; relative to 7b, MT2-CHO): > 160 fold

COc1cc2ccn(C)c(=O)c2cc1O [compound 12, 7-Hydroxy-6-methoxy-2-methylisoquinolin-1(2H)-one]
Emax at 10 µM (MT1 [7]; at 10 µM, partial activation, data not shown, read-out: maximal response, Ca2+ mobilization, MT1): 36% | Emax at 10 µM (MT2 [4]; MT2, at 10 µM, partial activation, data not shown, read-out: maximal response, Ca2+ mobilization, MT2): 53%

COc1cc2c(=O)n(C)ccc2cc1OCc1ccccc1 [7a, 6-Benzyloxy-7-methoxy-2-methylisoquinolin-1(2H)-one]
IC50 (MT2 [2]): 2.82 µM | Ki (MT2 [2]): 0.852 µM | Emax (MT2 [2]): 78 ± 7% | MT1 pIC50±SEM (MT1 [5]; [10]): NSB ^c | melting point: 102 to 104 °C | EC50 (MT2 [4]; [9]): 0.163 µM | Emax (MT2 [4]; MT2): 84 ± 20% | concentration triggering Ca2+ signals exclusively in MT2-CHO cells (MT2 [4]; from concentration response curves, Figure 4): around 1 µM
